Source: patent US20240287047A1, “PESTICIDALLY ACTIVE DIAZINE-AMIDE COMPOUNDS” (SYNGENTA CROP PROTECTION AG, priority 2021, published 2024)

Tests used:
Format in all cases: in vivo
Diabrotica balteata = assay: Example B2: Diabrotica balteata (corn root worm), maize sprouts, L2 larvae; conditions: for percent control (mortality or growth inhibition) at 200 ppm: Diabrotica balteata, 96 h, application rate of 200 ppm, 4 days after infestation, read-out: control in at least one of the two categories (mortality or growth inhibition)
Procedure: Maize sprouts placed onto an agar layer in 24-well microtiter plates were treated with aqueous test solutions prepared from 10,000 ppm DMSO stock solutions by spraying. After drying, the plates were infested with L2 larvae (6 to 10 per well). The samples were assessed for mortality and growth inhibition in comparison to untreated samples 4 days after infestation.

Plutella xylostella [1] = assay: Example B8: Plutella xylostella (diamondback moth), 96-well artificial diet; conditions: 216 h, application rate of 500 ppm, 9 days after infestation
Procedure: 96-well microtiter plates containing artificial diet were treated with aqueous test solutions, prepared from 10,000 ppm DMSO stock solutions, by a liquid handling robot. After drying, eggs (˜30 per well) were infested onto a netted lid which was suspended above the diet. The eggs hatch and L1 larvae move down to the diet. The samples were assessed for mortality 9 days after infestation.

Spodoptera littoralis [2] = assay: Example B6: Spodoptera littoralis, uptake by lettuce roots from agar; conditions: 144 h, test rate of 12.5 ppm, 6 days after infestation, read-out: effect in at least one of the three categories (mortality, anti-feeding, or growth inhibition)
Excerpt: Test compounds were applied by pipette from 10,000 ppm DMSO stock solutions into 24-well plates and mixed with agar. Lettuce seeds were placed onto the agar and the multi well plate was closed by another plate which contained also agar. After 7 days the compound was absorbed by the roots and the lettuce grew into the lid plate. The lettuce leaves were then cut off into the lid plate. Spodoptera eggs were pipetted through a plastic stencil onto a humid gel blotting paper and the lid plate was closed with it. The samples were assessed for mortality, anti-feedant effect and growth inhibition in comparison to untreated samples 6 days after infestation.

Myzus persicae [3] = assay: Example B7: Myzus persicae (green peach aphid), 96-well sucrose solution; conditions: 120 h, application rate of 50 ppm, 5 days after infestation
Procedure: Test compounds prepared from 10′000 ppm DMSO stock solutions were applied by a liquid handling robot into 96-well microtiter plates and mixed with a sucrose solution. Parafilm was stretched over the 96-well microtiter plate and a plastic stencil with 96 holes was placed onto the plate. Aphids were sieved into the wells directly onto the Parafilm. The infested plates were closed with a gel blotting card and a second plastic stencil and then turned upside down. The samples were assessed for mortality 5 days after infestation.

Plutella xylostella [4] = assay: Example B4: Plutella xylostella (diamond back moth), artificial diet, eggs; conditions: Plutella xylostella, 192 h; application rate of 200 ppm; 8 days after infestation; read-out: control in at least one of the two categories (mortality or growth inhibition)
Procedure: 24-well microtiter plates with artificial diet were treated with aqueous test solutions prepared from 10′000 ppm DMSO stock solutions by pipetting. After drying, Plutella eggs were pipetted through a plastic stencil onto a gel blotting paper and the plate was closed with it. The samples were assessed for mortality and growth inhibition in comparison to untreated samples 8 days after infestation.

Spodoptera littoralis [5] = assay: Example B5: Spodoptera littoralis (Egyptian cotton leaf worm), cotton leaf discs, L1 larvae; conditions: foliar, 72 h, application rate of 200 ppm, 3 days after infestation, read-out: control in at least one of the three categories (mortality, anti-feedant effect, or growth inhibition)
Procedure: Cotton leaf discs were placed onto agar in 24-well microtiter plates and sprayed with aqueous test solutions prepared from 10,000 ppm DMSO stock solutions. After drying the leaf discs were infested with five L1 larvae. The samples were assessed for mortality, anti-feeding effect, and growth inhibition in comparison to untreated samples 3 days after infestation. Control of Spodoptera littoralis by a test sample is given when at least one of the categories mortality, anti-feedant effect, and growth inhibition is higher than the untreated sample.

Myzus persicae [6] = assay: Example B3: Myzus persicae (green peach aphid) intrinsic activity; conditions: 120 h, test rate of 12 ppm, 5 days after infestation
Procedure: Test compounds prepared from 10′000 ppm DMSO stock solutions were applied by pipette into 24-well microtiter plates and mixed with sucrose solution. The plates were closed with a stretched Parafilm. A plastic stencil with 24 holes was placed onto the plate and infested pea seedlings were placed directly on the Parafilm. The infested plate was closed with a gel blotting paper and another plastic stencil and then turned upside down. The samples were assessed for mortality 5 days after infestation.

Chilo suppressalis = assay: Example B1: Chilo suppressalis (striped rice stemborer), artificial diet, L2 larvae; conditions: 144 h, application rate of 200 ppm, 6 days after infestation, read-out: control in at least one of the three categories (mortality, anti-feedant effect, or growth inhibition)
Procedure: 24-well microtiter plates with artificial diet were treated with aqueous test solutions prepared from 10,000 ppm DMSO stock solutions by pipetting. After drying, the plates were infested with L2 larvae (6-8 per well). The samples were assessed for mortality, anti-feeding effect, and growth inhibition in comparison to untreated samples 6 days after infestation. Control of Chilo suppressalis by a test sample is given when at least one of the categories mortality, anti-feedant effect, and growth inhibition is higher than the untreated sample.

Myzus persicae [7] = assay: Example B9: Myzus persicae (green peach aphid) feeding/contact activity, sunflower leaf discs; conditions: foliar, 144 h, application rate of 200 ppm, 6 days after infestation
Procedure: Sunflower leaf discs were placed onto agar in a 24-well microtiter plate and sprayed with aqueous test solutions prepared from 10,000 ppm DMSO stock solutions. After drying, the leaf discs were infested with an aphid population of mixed ages. The samples were assessed for mortality 6 days after infestation.

Row | SMILES | percent control (mortality or growth inhibition) at 200 ppm (Diabrotica balteata) [%] | mortality at 500 ppm (Plutella xylostella [1]) [%] | percent effect (mortality, anti-feeding or growth inhibition) at 12.5 ppm (Spodoptera littoralis [2]) [%] | mortality at 50 ppm (Myzus persicae [3]) [%] | percent control (mortality or growth inhibition) at 200 ppm (Plutella xylostella [4]) [%] | percent control (mortality, anti-feedant effect or growth inhibition) at 200 ppm (Spodoptera littoralis [5]) [%] | mortality at 12 ppm (Myzus persicae [6]) [%] | percent control (mortality, anti-feedant effect or growth inhibition) at 200 ppm (Chilo suppressalis) [%] | mortality at 200 ppm (Myzus persicae [7]) [%] | mortality at 50 ppm (Diabrotica balteata; Concentration 50 ppm, Diabrotica balteata (Example B32)) [%]
1 | C[C@H](NC(=O)c1cc(C(F)(F)F)cc(C(F)(F)F)c1)c1nccnc1-c1cnccn1 [Compound E3, N-[(1S)-1-(3-pyrazin-2-ylpyrazin-2-yl)ethyl]-3,5-bis(trifluoromethyl)benzamide] | ≥ 80 | ≥ 80 | ≥ 80 | ≥ 80 | ≥ 80 | ≥ 80 | ≥ 80 | ≥ 80 |  | 
2 | CC(NC(=O)c1cc(Br)cc(C(F)(F)F)c1)c1nccnc1-c1cnccn1 (stereo not drawn) [Compound P7, 3-bromo-N-[1-(3-pyrazin-2-ylpyrazin-2-yl)ethyl]-5-(trifluoromethyl)benzamide] | ≥ 80 |  |  |  | ≥ 80 | ≥ 80 |  | ≥ 80 | ≥ 80 | 
3 | CC(NC(=O)c1cc(Cl)cc(Br)c1)c1nccnc1-c1cnccn1 (stereo not drawn) [Compound P12, 3-bromo-5-chloro-N-[1-(3-pyrazin-2-ylpyrazin-2-yl)ethyl]benzamide] | ≥ 80 |  |  |  | ≥ 80 | ≥ 80 |  |  | ≥ 80 | 
4 | CC(NC(=O)c1cc(Cl)nc(C(F)(F)F)c1)c1nccnc1-c1cnccn1 (stereo not drawn) [Compound P14, 2-chloro-N-[1-(3-pyrazin-2-ylpyrazin-2-yl)ethyl]-6-(trifluoromethyl)pyridine-4-carboxamide] | ≥ 80 |  |  |  | ≥ 80 | ≥ 80 |  | ≥ 80 | ≥ 80 | 
5 | CC(NC(=O)c1cc(I)cc(I)c1)c1nccnc1-c1cnccn1 (stereo not drawn) [Compound P17, 3,5-diiodo-N-[1-(3-pyrazin-2-ylpyrazin-2-yl)ethyl]benzamide] | ≥ 80 |  |  |  | ≥ 80 | ≥ 80 |  |  | ≥ 80 | 
6 | Cc1cc(C(=O)NC(C)c2nccnc2-c2cnccn2)cc(C(F)(F)F)c1 (stereo not drawn) [Compound P18, 3-methyl-N-[1-(3-pyrazin-2-ylpyrazin-2-yl)ethyl]-5-(trifluoromethyl)benzamide] |  |  |  |  | ≥ 80 |  |  | ≥ 80 | ≥ 80 | 
7 | CC(NC(=O)c1cc(C(F)(F)F)cc(C2(C#N)CC2)c1)c1nccnc1-c1cnccn1 (stereo not drawn) [Compound P21] | ≥ 80 |  |  |  | ≥ 80 | ≥ 80 | ≥ 80 | ≥ 80 | ≥ 80 | 100
8 | CC(NC(=O)c1cc(F)cc(C(F)(F)F)c1)c1nccnc1-c1cnccn1 (stereo not drawn) [Compound P25, 3-fluoro-N-[1-(3-pyrazin-2-ylpyrazin-2-yl)ethyl]-5-(trifluoromethyl)benzamide] |  |  |  |  | ≥ 80 |  |  |  | ≥ 80 | 
9 | CC(NC(=O)c1cc(Cl)cc(S(C)(=O)=O)c1)c1nccnc1-c1cnccn1 (stereo not drawn) [Compound P26, 3-chloro-5-methylsulfonyl-N-[1-(3-pyrazin-2-ylpyrazin-2-yl)ethyl]benzamide] | ≥ 80 |  |  |  | ≥ 80 | ≥ 80 | ≥ 80 | ≥ 80 |  | 
10 | CC(NC(=O)c1cc(OC(F)(F)F)cc(C2(C#N)CC2)c1)c1nccnc1-c1cnccn1 (stereo not drawn) [Compound P31] | ≥ 80 |  |  |  | ≥ 80 | ≥ 80 | ≥ 80 | ≥ 80 |  | 
